The values below come from patent US20240261296A1, “THERAPEUTIC MODALITIES FOR INHIBITING PANCREATIC BETA CELL IMPAIRMENT AND TREATING DIABETES” (Hadasit Medical Research Serices & Development Ltd., priority 2021, published 2024).

This test has as its system human islets β-cells. In words: glucose-stimulated insulin secretion and insulin content in palmitate-treated human islets. Type of test: cell-based. Particulars: palmitic acid 0.3 mM, 48 hr, donors 1 and 2. The procedure:
Determination of glucose-stimulated insulin secretion (GSIS) and content: To determine acute insulin release in response to glucose stimulation, islets were washed with Krebs-Ringer bicarbonate buffer pH 7.4, containing 10 mM HEPES and 0.5% bovine serum albumin (KRBH), and pre-incubated for 2 hrs in the same buffer containing 3.3 mM glucose. The buffer was then discarded and replaced with fresh KRBH containing 3.3 mM glucose, and the islets incubated for 1 hour for basal insulin secretion, followed by additional 1 hour incubation in KRBH containing 16.7 mM glucose. The supernatants were collected, centrifuged at 900 rpm and insulin was determined by Rat or Human insulin radioimmunoassay (RIA) kits (Linco Research, St. Charles, MO) according to the Manufacturer's instructions. […] The acidic ethanol eluates were collected and the amount of insulin determined by ELISA.
ELISA Assay: Insulin was extracted from the intracellular storage granules in human islets cells using a lysis buffer (Ethanol-HCl). The extract was analysed by a specific ELISA (Mercodia) which is a solid phase two-site enzyme immunoassay based on the sandwich technique, in which two monoclonal antibodies are directed against separate antigenic determinants on the insulin molecule. […]

Consider `CC[C@@H]1CC[C@H](C)N1C(=O)c1cccc(NS(=O)(=O)c2ccc(C)c(F)c2)c1` [Compound C13, N-(3-((2R,5S)-2-ethyl-5-methylpyrrolidine-1-carbonyl)phenyl)-3-fluoro-4-methylbenzenesulfonamide], for which the restoring insulin content entry was “more potent than L-798106”. Where the note is “16.7 mM glucose”, the “restoring glucose-stimulated insulin secretion” value was “more potent than L-798106”.
